Test results reported in article PMC9032695, “Self-Assembled Alkylated Polyamine Analogs as Supramolecular Anticancer Agents” (Molecules, 2022).
“And” between values parts separate entries of the source, which are not always exact repeats. Equal values may be shown once. Read-outs that look alike come from different tables or passages of the source.

Tests used:
[1] = Hydrodynamic size and zeta potential of self-assembled nanoparticles (DLS); format: physicochemical; conditions: self-assembled in aqueous solution; for PDI: DLS; for Particle Size: hydrodynamic size by DLS
Procedure: To achieve self-assembly, each sample was dispersed in aqueous solution under sonication (Branson Ultrasonic, working frequency […] at room temperature) for 30 min. Thereafter, the sample was allowed to undergo self-assembly by keeping it undisturbed for another 30 min. The size and surface zeta potential of the self-assembled nanoparticles were analyzed using a Brookhaven NanoBrook (Holtsville, NY, USA) Omni particle size and zeta potential analyzer, respectively.

HCT116 cells = assay: CellTiter-Blue cell viability assay, HCT116; format: cell-based; conditions: Homo sapiens, HCT-116, 24 h incubation
Procedure: (§1) The human non-small cell lung carcinoma cell lines A549 (ATCC CCL-185) were maintained in RPMI 1640 medium containing 9% bovine calf serum, penicillin, and streptomycin at 37 °C, 5% CO2. For all experiments, cells were seeded and allowed to attach overnight. The medium was then aspirated and replaced with that containing polyamine PG analogs at the indicated concentrations. Cells were incubated for the times indicated at 37 °C, 5% CO2. The HCT 116 (ATCC CCL-247) human colorectal carcinoma cell lines were grown in McCoy’s 5 A medium (Thermo Fischer Scientific, Waltham, MA, USA), supplemented with 10% FBS at 37 °C with 5% CO2 in a humidified chamber.
(§2) The cytotoxicity of the HPG analogs was evaluated in HCT116 and A549 cells by the Promega CellTiter Blue Cell viability assay. The cells were seeded in 96-well plates at a density of four thousand cells/well 24 h before the polyamine treatment. The original medium was replaced with serial dilutions of the PG analogs in a cell culture medium and incubated for another 24 h. The mixture of 100 μL cell culture medium and 20 μL CellTiter Blue reagent was added into each well after the removal of the media with polyamines. After 2 h of incubation, the fluorescence intensity [FI] was measured at λex/λem = 560/590 nm by a microplate reader (Molecular Devices, San Jose, CA, USA). The relative cell viability (%) was calculated as [FI]treated/[FI]untreated × 100. Polyamine concentration, causing a 50% decrease in the cell viability, was defined as IC50 and auto-calculated in GraphPad Prism 9.0.0 (Prism 9, San Diego, CA, USA) with the dose–response analysis.

A549 cells = assay: CellTiter-Blue cell viability assay, A549; format: cell-based; conditions: Homo sapiens, 24 h incubation
Procedure: as §1, §2

[2] = TEM imaging of self-assembled nanoparticles; format: physicochemical
Procedure: A 10 µL volume of nanoparticle dispersion was meticulously placed on a plasma-treated copper grid (carbon-coated). After 5 min, the excess volume of nanoparticles was absorbed by a regular filter paper. The grid was then stained with 2% phosphotungstic acid (6 µL) for 1 min, and, similarly, the excess staining solution was absorbed by a regular filter paper. The grid was then allowed to dry in air for another 5 min. The image was captured under an FEI-Tecnai G2 transmission electron microscope (Hillsboro, OR, USA) at 80 kV, equipped with an AMT digital imaging system (Woburn, MA, USA).

[3] = target: T1, purified recombinant human SMOX protein (Homo sapiens, UniProt Q9NWM0); assay: SMOX activity assay (luminol-based chemiluminescence); format: biochemical; conditions: for IC50: purified recombinant human SMOX, pH 8.0, 37 °C; for fold activity compared to MDL72527, SMOX: ratio of IC50 values
T1 sequence (Q9NWM0 whole entry): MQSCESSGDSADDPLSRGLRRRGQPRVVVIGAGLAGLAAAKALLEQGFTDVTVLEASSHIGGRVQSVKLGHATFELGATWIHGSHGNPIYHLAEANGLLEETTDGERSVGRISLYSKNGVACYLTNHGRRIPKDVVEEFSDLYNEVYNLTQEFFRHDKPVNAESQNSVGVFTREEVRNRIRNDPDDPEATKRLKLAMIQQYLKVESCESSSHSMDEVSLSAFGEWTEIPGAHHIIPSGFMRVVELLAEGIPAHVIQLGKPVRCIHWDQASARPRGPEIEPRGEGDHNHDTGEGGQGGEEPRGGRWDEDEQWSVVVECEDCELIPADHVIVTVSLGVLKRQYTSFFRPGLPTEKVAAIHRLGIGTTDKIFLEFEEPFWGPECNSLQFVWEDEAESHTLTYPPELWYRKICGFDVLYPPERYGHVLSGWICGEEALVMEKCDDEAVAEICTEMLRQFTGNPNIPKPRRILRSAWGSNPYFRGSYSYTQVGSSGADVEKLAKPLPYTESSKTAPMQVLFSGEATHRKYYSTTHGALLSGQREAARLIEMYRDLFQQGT
Procedure: SMOX activity was measured using a chemiluminescent enzyme-based assay, detecting the formation of H2O2 in the presence of HPG analogs as the substrate, as described. To measure the activity of these polyamines against SMOX, the enzyme (300 ng) in 0.083 M glycine buffer (pH 8.0) and the inhibitor (0–250 µM) were added to the luminol-HRP master mix and incubated at 37 °C for 2 min. PG was then added to the reaction mixture at a final concentration of 250 µM, vortexed for 3 s, and chemiluminescence was integrated over 40 s. Data were averaged and normalized to the blank reaction (no inhibitor) as % SMOX activity. Inactivated SMOX served as a negative control and was accounted for in the calculations.

[4] = target: T1, purified recombinant human SMOX protein; set-up: method as in PMID 33173604; conditions: purified enzyme, reference inhibitor, ref [21], cited from earlier work
colon cancer cells = tested on: colon cancer cells; set-up: method as in PMID 19487545; conditions: ref [10]; cited from earlier work
[5] = tested on: small (NCI H82 and H69) and non-small (NCI A549 and H157) lung cancer cells; set-up: method as in PMID 18301893; conditions: ref [9]; cited from earlier work
A549 xenograft = tested on: A549 xenograft; set-up: method as in PMID 17464296, PMID 18301893, PMID 19487545; conditions: in vivo A549 xenograft model; ref [1],[9],[10]; cited from earlier work

| SMILES | PDI [1] | Particle Size [1] | Particle Size ([1]; listed as HPG2) | Zeta Potential [1] [mV] | IC50 (HCT116 cells) [µM] | IC50 (A549 cells) [µM] | average size obtained from TEM [2] [nm] | IC50 [3] [µM] | fold activity compared to MDL72527, SMOX [3] | IC50 [4] [µM] | IC50 ([4]; listed as MDL 72,527) [µM] | anticancer activity in colon cancer cells (colon cancer cells) | growth inhibition of lung cancer cells in vitro [5] | progression of established tumors (A549 xenograft) |
| --- | --- | --- | --- | --- | --- | --- | --- | --- | --- | --- | --- | --- | --- | --- |
| CCCCNCCCNC/C=C\CNCCCNCCCC [HPG-3, (Z)-N^1,N^1′-(but-2-ene-1,4-diyl)bis(N^3-butylpropane-1,3-diamine)] | 0.064 | 186 ± 3 nm | – | 24 | 8 | > 10 | – | – | – | – | – | – | – | – |
| CCCCCCNCCCNC/C=C\CNCCCNCCCCCC [HPG-5, (Z)-N^1,N^1′-(but-2-ene-1,4-diyl)bis(N^3-hexylpropane-1,3-diamine)] | 0.23 | 158 ± 4 nm | – | 16 | 8 | 7 | – | 90 | – | – | – | – | – | – |
| CCCCCCCNCCCNC/C=C\CNCCCNCCCCCCC [HPG-6, (Z)-N^1,N^1′-(but-2-ene-1,4-diyl)bis(N^3-heptylpropane-1,3-diamine)] | 0.17 | 225 nm and 225 ± 6 nm | – | 22 | 3 | 3 | 8 | 30 | – | – | – | – | – | – |
| CCCCCCCCNCCCNC/C=C\CNCCCNCCCCCCCC [HPG-7, (Z)-N^1,N^1′-(but-2-ene-1,4-diyl)bis(N^3-octylpropane-1,3-diamine)] | 0.13 | 318 ± 8 nm | – | 11 | 1 | < 1 | 30 | < 10 | around nine-fold more active than MDL 72,527 | – | – | – | – | – |
| C=C=CCNCCCCNCC=C=C [MDL72527] | – | – | – | – | – | – | – | – | – | 90 | ~90 | – | – | – |

The next lines start with results.

| PDI [1] | Particle Size [1] | Particle Size ([1]; listed as HPG2) | Zeta Potential [1] [mV] | IC50 (HCT116 cells) [µM] | IC50 (A549 cells) [µM] | average size obtained from TEM [2] [nm] | IC50 [3] [µM] | SMILES | fold activity compared to MDL72527, SMOX [3] | IC50 [4] [µM] | IC50 ([4]; listed as MDL 72,527) [µM] | anticancer activity in colon cancer cells (colon cancer cells) | growth inhibition of lung cancer cells in vitro [5] | progression of established tumors (A549 xenograft) |
| --- | --- | --- | --- | --- | --- | --- | --- | --- | --- | --- | --- | --- | --- | --- |
| 0.21 | 173 ± 7 nm | around 173 nm | 27 | < 1 | < 1 | – | – | CCCNCCCNC/C=C\CNCCCNCCC [HPG-2, (Z)-N^1,N^1′-(but-2-ene-1,4-diyl)bis(N^3-propylpropane-1,3-diamine)] | – | – | – | – | – | – |
| 0.15 | 174 nm and 174 ± 3 nm | – | 15 | > 10 | 10 | 6 | – | CCCCCNCCCNC/C=C\CNCCCNCCCCC [HPG-4, (Z)-N^1,N^1′-(but-2-ene-1,4-diyl)bis(N^3-pentylpropane-1,3-diamine)] | – | – | – | – | – | – |
| 0.17 | – | – | 17 | < 1 | 7 | – | < 10 | CCCCCCCCCNCCCNC/C=C\CNCCCNCCCCCCCCC [HPG-8, (Z)-N^1,N^1′-(but-2-ene-1,4-diyl)bis(N^3-nonylpropane-1,3-diamine)] | around nine-fold more active than MDL 72,527 | – | – | – | – | – |
| – | – | – | – | 8 | > 10 | – | – | CCNCCCNC/C=C\CNCCCNCC [PG11047, (Z)-N^1,N^1′-(but-2-ene-1,4-diyl)bis(N^3-ethylpropane-1,3-diamine)] | – | – | – | broad spectrum of anticancer activity | inhibits the growth | significantly delay the progression of established tumors |
